Experimental data taken from patent US20110287933A1, “Herbicidal composition for tolerant or resistant oilseed rape crops” (BAYER CROPSCIENCE AG, priority 2010, published 2011).

What was measured:
Type in all cases: in vivo
[1] = system: oilseed rape (GA-tolerant); assay: Greenhouse trial, crop plant compatibility in oilseed rape (GA-tolerant); details: 2-4 oilseed rape-leaf stage
Protocol: The trials were carried out under greenhouse conditions (test pots, diameter 8 cm, spray application using 300 l of water/hectare, 2 repetitions, 6 to 8 plants per pot).
Scoring was by visual comparison of the treated with the untreated controls (0-100% scale, 14-19 days after the application) (see details in the respective tables).

[2] = system: Lolium multiflorum; assay: Greenhouse trial, post-emergence herbicidal efficacy against Lolium multiflorum; details: scoring 14 days after application, g of ai/ha: A1.1 100, B1.1 5, C10 5, C11 15, combinations at the same rates
Protocol: (§1) The trials were carried out under greenhouse conditions (test pots, diameter 8 cm, spray application using 300 l of water/hectare, 2 repetitions, 6 to 8 plants per pot). Application was by post-emergence treatment; the species of the harmful plants and their stage of growth at the time of treatment are, indicated in the individual results tables. The application rates of the herbicidally active compounds used on their own or in combinations are likewise listed in the individual results tables.
(§2) Scoring was by visual comparison of the treated with the untreated controls (0-100% scale, 14-19 days after the application) (see details in the respective tables). The results (means for all plants per pot and means of two repetitions per pot and treatment) are lised in Tables 4 to 6 below.
(§3) 4.2 Abbreviations Used in Tables 4 to 6 • application rate g/ai=application rate in grams of active compound per hectare • ai=active ingredient (of an active compound content of 100%) • GA=glufosinate-ammonium • GA-tolerant=oilseed rape which is tolerant to GA (GMO) • E^C=expected value according to Colby, (E^C=A+B−A×B/100)=for ternary combinations: (A+B)+C−(A+B)×C/100 • E^A=expected value according to the addition method (E^A=A+B) • A=difference (%) between observed value−%−vs. expected value (%) (observed value minus expected value) • examination:—observed values for (A), (B) and (A)+(B) in % • scoring:—observed value (%) greater >than E^C/E^A: ->synergism (+Δ) • observed value (%) equal to =E^c/E^A->additive effect (+−0Δ) • observed value (%) smaller <than E^A/E^c->antagonism (−Δ)

[3] = system: Viola arvensis; assay: Greenhouse trial, post-emergence herbicidal efficacy against Viola arvensis; details: scoring 14 days after application, g of ai/ha: A1.1 100, B1.1 5, C1 25, C2 100, C3 12.5, C4 2.5, C5 50, C6 125, C7 250, C8 250, C9 5, combinations at the same rates
Protocol: as §1
Scoring was by visual comparison of the treated with the untreated controls (0-100% scale, 14-19 days after the application) (see details in the respective tables). The results (means for all plants per pot and means of two repetitions per pot and treatment) are lised in Tables 4 to 6 below. […]

[4] = system: Matricaria chamomilla; assay: Greenhouse trial, post-emergence herbicidal efficacy against Matricaria chamomilla; details: scoring 19 days after application, g of ai/ha: A1.1 100, B1.1 5, C12 50, combinations at the same rates
Protocol: as §1, §2, §3

[5] = Table 5, post-emergence, scoring 14 days after application, g of ai/ha: A1.1 100, B1.1 5, C10 5, C11 15, combinations at the same rates
[6] = Table 4, post-emergence, scoring 14 days after application, g of ai/ha: A1.1 100, B1.1 5, C1 25, C2 100, C3 12.5, C4 2.5, C5 50, C6 125, C7 250, C8 250, C9 5, combinations at the same rates, (75)* = selective only in IMI × GA tolerant crop plants
[7] = Table 6, post-emergence, scoring 19 days after application, g of ai/ha: A1.1 100, B1.1 5, C12 50, combinations at the same rates

SMILES	Herbicidal efficacy % Lolium multiflorum [2] [%]	Damage to crop plants (%) oilseed rape (GA-tolerant) (≦15-20% acceptable) [1, 6]	other results
CCSC(C)CC1CC(=O)C(/C(CC)=N/OC/C=C/Cl)=C(O)C1 (centres unmarked) [C10, clethodim]	50	–	Damage to crop plants (%) oilseed rape (GA-tolerant) (≦15-20% acceptable) [1, 5]: 0%
Cc1cccc(C)c1N(Cn1cccn1)C(=O)CCl [C5, metazachlor]	–	0%	–
C[C@@H](Oc1ccc(Oc2ncc(C(F)(F)F)cc2Cl)cc1)C(=O)O [C4, haloxyfop-p]	–	–	Herbicidal efficacy % Viola arvensis [3]: 0%
CP(=O)(O)CCC(N)C(=O)O (centres unmarked) [A1.1, glufosinate-ammonium]	20	10%	Damage to crop plants (%) oilseed rape (GA-tolerant) (≦15-20% acceptable) [1, 5]: 10%; Damage to crop plants (%) oilseed rape (GA-tolerant) (≦15-20% acceptable) [1, 7]: 10%; Herbicidal efficacy % Matricaria chamomilla [4]: 95%
CCCCCCCCSC(=O)Oc1cc(Cl)nnc1-c1ccccc1 [C7, pyridate]	–	0%	–
CCCC(=NOCC)C1=C(O)CC(C2CCCSC2)CC1=O (centres unmarked) [C11, cycloxydim]	70	–	–
COC(=O)c1nc(-c2ccc(Cl)c(OC)c2F)cc(N)c1Cl [B1.1, methyl 4-amino-3-chloro-6-(4-chloro-2-fluoro-3-methoxyphenyl)pyridine-2-carboxylate]	0	–	Herbicidal efficacy % Matricaria chamomilla [4]: 40%
CC1(C)CON(Cc2ccccc2Cl)C1=O [C12, Clomazone]	–	–	Damage to crop plants (%) oilseed rape (GA-tolerant) (≦15-20% acceptable) [1, 7]: 15%; Herbicidal efficacy % Matricaria chamomilla [4]: 0%
CCCN(CCC)c1c([N+](=O)[O-])cc(C(F)(F)F)cc1[N+](=O)[O-] [C8, trifluralin]	–	0%	–
COCc1cnc(C2=NC(C)(C(C)C)C(=O)N2)c(C(=O)O)c1 (centres unmarked) [C9, imazamox]	–	(75)* %	–
O=C(O)c1nc(Cl)ccc1Cl [C1, clopyralid]	–	0%	–
CCOC(=O)[C@@H](C)Oc1ccc(Oc2nc3ccc(Cl)cc3o2)cc1 [C3, fenoxaprop-P-ethyl]	–	15%	Herbicidal efficacy % Viola arvensis [3]: 0%
